From patent EP3981391B1, “ORAL PREPARATION HAVING IMPROVED DISSOLUTION RATE AND DISINTEGRATION PROPERTIES FOR NATURAL SUBSTANCE EXTRACT” (Green Cross WellBeing Corporation, priority 2019, dated 2020)

Test: Solubility of processed ginseng extract (ginsenosides Rg3 and Rh2 by HPLC) in solvents and dissolution media
Assay type: physicochemical
Method: Processed ginseng extracts were used as natural product extracts of the present invention, and the processed ginseng extracts were prepared by the methods disclosed in Korean Patent Nos. 1595426 and 1966117. Among these, a processed ginseng extract containing 13 wt% of ginsenoside Rg3 and 7 wt% of ginsenoside Rh2 was used.
To investigate the solubility of the processed ginseng extract of the present invention, isopropanol, ethanol, water, and a pH 1.2 buffer, a pH 4.0 buffer, and a pH 6.8 buffer, which are dissolution media disclosed in the Korean Pharmacopoeia, were used as solvents. After 500 mg of the processed ginseng extract was added to 2 g of each solvent, stirring was performed at 50 rpm and 37°C for 18 hours, thereby obtaining each sample. Thereafter, a filtrate obtained by filtration of each sample through a 0.45-µm polyvinylidene fluoride (PVDF) syringe filter was analyzed by high performance liquid chromatography (HPLC) to investigate the solubility of ginsenosides Rg3 and Rh2 contained in the processed ginseng extract. The results are shown in Table 1 below. • HPLC Conditions were as follows: • Column: C18, 1.8 µm, 2.1x50 mm • Column Temperature: 50°C • Detector: UV 203 nm • Flow rate: 0.6 ml/min • Amount of injection: 2 µl • Run time: About 14 min • Mobile phase: distilled water: acetonitrile =57:43 (v/v) TABLE 1

[1] = in water, a pH 1.2 buffer, or a pH 4.0 buffer
[2] = Ethanol, 500 mg processed ginseng extract in 2 g solvent, 50 rpm, 37°C, 18 hours
[3] = Isopropanol, 500 mg processed ginseng extract in 2 g solvent, 50 rpm, 37°C, 18 hours
[4] = Water, 500 mg processed ginseng extract in 2 g solvent, 50 rpm, 37°C, 18 hours
[5] = pH 1.2 buffer, 500 mg processed ginseng extract in 2 g solvent, 50 rpm, 37°C, 18 hours
[6] = pH 4.0 buffer, 500 mg processed ginseng extract in 2 g solvent, 50 rpm, 37°C, 18 hours
[7] = pH 6.8 buffer, 500 mg processed ginseng extract in 2 g solvent, 50 rpm, 37°C, 18 hours

CC(C)=CCC[C@](C)(O)[C@H]1CC[C@]2(C)[C@@H]1[C@H](O)C[C@@H]1[C@@]3(C)CC[C@H](O[C@@H]4O[C@H](CO)[C@@H](O)[C@H](O)[C@H]4O[C@@H]4O[C@H](CO)[C@@H](O)[C@H](O)[C@H]4O)C(C)(C)[C@@H]3CC[C@]12C [ginsenoside Rg3]
solubility [1]: less than 0.3 mg/g

CC(C)=CCC[C@](C)(O)[C@H]1CC[C@]2(C)[C@@H]1[C@H](O)C[C@@H]1[C@@]3(C)CC[C@H](O[C@@H]4O[C@H](CO)[C@@H](O)[C@H](O)[C@H]4O[C@@H]4O[C@H](CO)[C@@H](O)[C@H](O)[C@H]4O)C(C)(C)[C@@H]3CC[C@]12C [Ginsenoside Rg3 S-form, Ginsenoside Rg3]
solubility [2]: 7.52 mg/g
solubility [3]: 7.43 mg/g
solubility [4]: 0.21 mg/g
solubility [5]: 0.01 mg/g
solubility [6]: 0.28 mg/g
solubility [7]: 1.23 mg/g

CC(C)=CCC[C@](C)(O)[C@H]1CC[C@]2(C)[C@@H]1[C@H](O)C[C@@H]1[C@@]3(C)CC[C@H](O[C@@H]4O[C@H](CO)[C@@H](O)[C@H](O)[C@H]4O)C(C)(C)[C@@H]3CC[C@]12C [Ginsenoside Rh2 S-form, Ginsenoside Rh2]
solubility [2]: 3.96 mg/g
solubility [3]: 3.99 mg/g
solubility [4]: 0.10 mg/g
solubility [5]: 0.00 mg/g
solubility [6]: 0.13 mg/g
solubility [7]: 0.60 mg/g

CC(C)=CCC[C@](C)(O)[C@H]1CC[C@]2(C)[C@@H]1[C@H](O)C[C@@H]1[C@@]3(C)CC[C@H](O[C@@H]4O[C@H](CO)[C@@H](O)[C@H](O)[C@H]4O[C@@H]4O[C@H](CO)[C@@H](O)[C@H](O)[C@H]4O)C(C)(C)[C@@H]3CC[C@]12C [Ginsenoside Rg3 R-form, Ginsenoside Rg3]
solubility [2]: 5.45 mg/g
solubility [3]: 4.72 mg/g
solubility [4]: 0.05 mg/g
solubility [5]: 0.01 mg/g
solubility [6]: 0.05 mg/g
solubility [7]: 0.31 mg/g

CC(C)=CCC[C@](C)(O)[C@H]1CC[C@]2(C)[C@@H]1[C@H](O)C[C@@H]1[C@@]3(C)CC[C@H](O[C@@H]4O[C@H](CO)[C@@H](O)[C@H](O)[C@H]4O)C(C)(C)[C@@H]3CC[C@]12C [ginsenoside Rh2]
solubility [1]: less than 0.3 mg/g

CC(C)=CCC[C@](C)(O)[C@H]1CC[C@]2(C)[C@@H]1[C@H](O)C[C@@H]1[C@@]3(C)CC[C@H](O[C@@H]4O[C@H](CO)[C@@H](O)[C@H](O)[C@H]4O)C(C)(C)[C@@H]3CC[C@]12C [Ginsenoside Rh2 R-form, Ginsenoside Rh2]
solubility [2]: 2.55 mg/g
solubility [3]: 2.47 mg/g
solubility [4]: 0.00 mg/g
solubility [5]: 0.00 mg/g
solubility [6]: 0.00 mg/g
solubility [7]: 0.09 mg/g
